This passage reports GI50 and TGI results from PubChem BioAssay (NCI).

Test systems include SNB-19 CNS; NCI/ADR-RES ovarian; PC-3 prostate; T-47D breast; OVCAR-4 ovarian; MDA-MB-435; CAKI-1 renal; MALME-3M melanoma.
What all share (test): DTP human tumour cell line panel, 48 h

Values joined by “and” are separate entries in the source; they are usually repeats but may differ in a detail not shown here. Equal entries are not always repeated.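 Interpolation was linear, between the two tested concentrations surrounding the appropriate level; five concentrations were tested over 48 hours in 96-well plates. GI50 marks 50% less growth. TGI: concentration producing complete growth inhibition.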 Some results are limits rather than exact numbers.

As for `C=C1CC[C@@H]2[C@](C)(COC(C)=O)[C@H](OC(C)=O)CC[C@@]2(C)[C@@H]1CC(Nc1ccc(S(=O)(=O)NC(C)=O)cc1)C1=CCOC1=O` (stereo partly specified), the GI50 in the assay on SNB-19 CNS was 8.19 µM; in the assay with NCI/ADR-RES ovarian, 2.51 µM; in the assay on PC-3 prostate, 6.56 µM; with T-47D breast, 2.46 µM; in the assay on OVCAR-4 ovarian, 4.14 µM; in the assay on MDA-MB-435 it was 2.79 µM. In the assay with CAKI-1 renal, the GI50 was 3.31 µM. In addition, the TGI in the assay with SNB-19 CNS amounted to 18.9 µM; in the assay with NCI/ADR-RES ovarian, 9.14 µM; with PC-3 prostate, 16.8 µM; in the assay with T-47D breast, 12 µM; in the assay with OVCAR-4 ovarian, 13.7 µM; in the assay with MDA-MB-435, 10.6 µM. In the assay on CAKI-1 renal, the TGI is 11.2 µM.

For the molecule `Cc1cc(S(=O)(=O)Nc2nc3ccccc3o2)c(SCc2ccccc2)cc1Cl`, the GI50 is 21.6 µM in the assay on SNB-19 CNS; 20 µM with NCI/ADR-RES ovarian; 16.1 µM in the assay on PC-3 prostate; 25.4 µM with OVCAR-4 ovarian; 19.8 µM in the assay with MDA-MB-435; 19.6 µM in the assay with CAKI-1 renal. Further, the TGI turned out to be 67.8 µM in the assay with SNB-19 CNS; 40.9 µM in the assay with NCI/ADR-RES ovarian; 30.5 µM in the assay on PC-3 prostate; 67.9 µM in the assay on OVCAR-4 ovarian; 42.7 µM in the assay with MDA-MB-435; 47.3 µM in the assay on CAKI-1 renal.

Consider `CCN(CCCN(C)C)Cc1cc(I)cc(C)c1O`, for which the GI50 was 26.9 µM in the assay with SNB-19 CNS; 27 µM in the assay on NCI/ADR-RES ovarian; 21.5 µM in the assay on PC-3 prostate; 21.3 µM in the assay on T-47D breast; 48.7 µM in the assay with OVCAR-4 ovarian; 19.8 µM with MALME-3M melanoma. Moreover, the GI50 with MDA-MB-435 is 15.7 µM; with CAKI-1 renal it was 18.5 µM. Besides, the TGI with SNB-19 CNS is 63.1 µM; in the assay with NCI/ADR-RES ovarian it was over 100 µM; in the assay on PC-3 prostate, 65.8 µM; in the assay on T-47D breast, 48.5 µM; in the assay on OVCAR-4 ovarian, over 100 µM; with MALME-3M melanoma, 36.8 µM. Also, the TGI with MDA-MB-435 came to 31.6 µM; with CAKI-1 renal it was 39.3 µM.

In the case of `CN(c1ncccc1CNc1nc(Nc2ccc3c(c2)CC(=O)N3)ncc1C(F)(F)F)S(C)(=O)=O`, the GI50 was 2.75 µM and 2.89 µM in the assay with SNB-19 CNS; 13 µM in the assay with NCI/ADR-RES ovarian; 2.83 µM and 3 µM in the assay on PC-3 prostate; 3.22 µM and 2.72 µM in the assay with T-47D breast; 2.1 µM and 3.56 µM with OVCAR-4 ovarian; 2.98 µM and 2.89 µM in the assay on MALME-3M melanoma. The GI50 in the assay with MDA-MB-435 is 1.46 µM and 2.74 µM; in the assay with CAKI-1 renal, 2.15 µM and 2.87 µM. The TGI with SNB-19 CNS was over 100 µM; with NCI/ADR-RES ovarian, over 85.8 µM; in the assay with PC-3 prostate, over 35.9 µM; in the assay on T-47D breast, > 33 µM and 9.35 µM; with OVCAR-4 ovarian, 11 µM and > 10 µM; with MALME-3M melanoma, 10.2 µM and > 10 µM. Moreover, the TGI in the assay on MDA-MB-435 is 11.4 µM and > 10 µM; with CAKI-1 renal it was over 52.4 µM.

Consider `COc1ccc(C(c2cc(OC)c(OC)c(OC)c2)n2ccnc2)cc1O` (stereo unspecified), for which the GI50 with SNB-19 CNS is 0.532 µM; in the assay with NCI/ADR-RES ovarian, 1.92 µM; in the assay on PC-3 prostate, 0.384 µM; with OVCAR-4 ovarian, 3.44 µM; with CAKI-1 renal it was 0.68 µM. Moreover, the TGI in the assay with SNB-19 CNS, with NCI/ADR-RES ovarian, in the assay on PC-3 prostate, in the assay on OVCAR-4 ovarian and with CAKI-1 renal was over 100 µM in each case.

On to `COc1ccc2c(c1OC)C[C@@H]1c3c(cc4c(c3-2)OCO4)CCN1C`, for which the TGI in the assay with SNB-19 CNS was over 100 µM; in the assay on PC-3 prostate it was 89.2 µM; with T-47D breast, 90.2 µM; in the assay on OVCAR-4 ovarian, over 100 µM; in the assay with MALME-3M melanoma it was over 100 µM; in the assay with MDA-MB-435 it was over 100 µM. Also, the TGI in the assay on CAKI-1 renal is over 100 µM.

Consider `COc1ccc(C2CC(c3cccc(Nc4ccnc5cc(Cl)ccc45)c3)=NN2C=O)cc1` (stereo unspecified), for which the GI50 in the assay on SNB-19 CNS is 0.902 µM; in the assay with NCI/ADR-RES ovarian, 0.379 µM; in the assay with PC-3 prostate it was 0.577 µM; with T-47D breast, 0.604 µM; in the assay with OVCAR-4 ovarian it was 0.94 µM; in the assay with MDA-MB-435 it was 0.142 µM. Moreover, the GI50 in the assay on CAKI-1 renal is 0.394 µM. The TGI is over 100 µM in the assay on SNB-19 CNS; 4.92 µM in the assay on NCI/ADR-RES ovarian; over 100 µM with PC-3 prostate; over 42.8 µM in the assay with T-47D breast; over 100 µM in the assay on OVCAR-4 ovarian; over 100 µM with MALME-3M melanoma. Besides, the concentration for total growth inhibition (TGI) in the assay with MDA-MB-435 was 0.809 µM; with CAKI-1 renal it was 29.2 µM.

As for `COc1cc(Nc2nc3cc(N)cc(N)c3nc2-c2ccccc2)cc(OC)c1OC`, the GI50 with SNB-19 CNS is 33.1 µM; with NCI/ADR-RES ovarian it was 14.4 µM; in the assay on PC-3 prostate, 14.2 µM; in the assay on T-47D breast, 6.07 µM; in the assay with OVCAR-4 ovarian, 0.0313 µM; in the assay with MALME-3M melanoma it was 13 µM. Besides, the GI50 in the assay with MDA-MB-435 is 7.35 µM; with CAKI-1 renal, 15.5 µM. For the same molecule, the TGI with SNB-19 CNS is over 100 µM; in the assay on NCI/ADR-RES ovarian, 44.1 µM; with PC-3 prostate, 59.3 µM; in the assay on T-47D breast it was 27.3 µM; with OVCAR-4 ovarian, 0.892 µM; in the assay on MALME-3M melanoma it was 28.2 µM. Further, the TGI in the assay with MDA-MB-435 turned out to be 24.4 µM; in the assay on CAKI-1 renal, 48.5 µM.

As to `Fc1cccc(COc2ccc(Nc3ncnc4sc(-c5cccs5)cc34)cc2Cl)c1`, the GI50 in the assay with SNB-19 CNS is 5.33 µM; with NCI/ADR-RES ovarian, 4.74 µM; in the assay on PC-3 prostate it was over 10.7 µM; with T-47D breast, 2.71 µM; with OVCAR-4 ovarian, 2.06 µM; in the assay on MALME-3M melanoma it was 3.52 µM. For the same molecule, the values for the GI50 in the assay on MDA-MB-435 and in the assay on CAKI-1 renal were 3.61 µM and over 9.71 µM, respectively. Also, the TGI is 12 µM in the assay with SNB-19 CNS; over 17.3 µM in the assay on NCI/ADR-RES ovarian; over 20.4 µM with PC-3 prostate; 9.04 µM in the assay with T-47D breast; 8.66 µM in the assay on OVCAR-4 ovarian; 10.1 µM in the assay on MALME-3M melanoma. The TGI in the assay on MDA-MB-435 was over 19.1 µM; in the assay with CAKI-1 renal, over 25 µM.

For the molecule `CCOC(=O)/C(=C/N1CCN(C(=O)c2ccco2)C1=S)C(=O)c1ccccc1`, the GI50 in the assay on SNB-19 CNS is 35.6 µM; in the assay on PC-3 prostate, 19.4 µM; with T-47D breast, 4.08 µM; with OVCAR-4 ovarian, 31 µM; in the assay with MALME-3M melanoma it was 13.3 µM; with MDA-MB-435 it was 14.4 µM. Further, the GI50 in the assay on CAKI-1 renal was 15.9 µM. Also, the TGI in the assay on SNB-19 CNS is over 50 µM; with PC-3 prostate, over 50 µM; with T-47D breast it was over 50 µM; with OVCAR-4 ovarian, over 50 µM; in the assay on MALME-3M melanoma, 48.4 µM; with MDA-MB-435, over 50 µM. The molecule further yielded a TGI in the assay on CAKI-1 renal of over 50 µM.
